From patent US20240287154A1, “MC3R AGONIST PEPTIDES” (The Regents of the University of Michigan, priority 2021, published 2024) come the findings set out here.

SMILES strings stand for the structures. Non-standard residues stand in square brackets, D forms with d. Residues, ends and D or L forms follow the SMILES beside them. d(αMeW) = C[C@@](N)(Cc1c[nH]c2ccccc12)C(=O)O; Phe(4-I) = N[C@@H](Cc1ccc(I)cc1)C(=O)O; NMeH = CN[C@@H](Cc1c[nH]cn1)C(=O)O; NMeK = CN[C@@H](CCCCN)C(=O)O; dNle = CCCC[C@@H](N)C(=O)O; Nle = CCCC[C@H](N)C(=O)O; dAbu = CC[C@@H](N)C(=O)O; dNMeA = CN[C@H](C)C(=O)O; Aib = CC(C)(N)C(=O)O

For this assay, the target named is human MC4R (Homo sapiens, UniProt P32245). Description: Intracellular cAMP levels in live cells, MC3R selectivity relative to MC4R. Format: cell-based. The settings on record: cAMP assays in human MC3R and human MC4R stable cell lines. The protocol: The stable cell lines were grown and maintained in selection media consisting of Dulbecco's modified Eagle media (DMEM) with 4.5 g/l D-glucose, and 4 mM L-glutamine (Thermo Fisher Scientific, Waltham, MA), supplemented with 10% fetal bovine serum, 100 units/ml penicillin, 100 μg/ml streptomycin, 2.5 μg/ml amphotericin B, 200 μg/ml hygromycin B (for positive selection of the GScAMP22f luciferase reporter), and Geneticin™ (G418) 700 μg/ml (for MC3R or MC4R selection). Actual serum concentration during the assay is estimated to be about 1%. Cell line identity is routinely verified by qPCR and MC3R- and MC4R-specific oligonucleotides.
Chain of human MC4R (P32245 whole entry): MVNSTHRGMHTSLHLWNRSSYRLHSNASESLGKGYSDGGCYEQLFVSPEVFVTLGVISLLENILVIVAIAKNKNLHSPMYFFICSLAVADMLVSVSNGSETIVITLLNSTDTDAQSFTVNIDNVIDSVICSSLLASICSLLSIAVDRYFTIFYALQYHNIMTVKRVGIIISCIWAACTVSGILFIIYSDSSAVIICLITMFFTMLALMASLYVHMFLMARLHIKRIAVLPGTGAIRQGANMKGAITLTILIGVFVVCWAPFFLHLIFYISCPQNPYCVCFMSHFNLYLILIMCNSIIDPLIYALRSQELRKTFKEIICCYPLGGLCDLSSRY
The assay for the determination of the CAMP response in live cells was described previously. […] Ccells were seeded at a density of 20,000 cells per well using 384-well poly-D lysine-coated, clear bottom, and black-wall assay plates (Corning Inc. Corning, NJ). Cells were allowed to attach to the plates for 18 to 24 h after which growth media was removed and 20 ul of 4% D-luciferin (Promega) in CO2 independent, serum-free medium (Thermo Fisher Scientific) was added to each well. […] Intracellular cAMP levels were measured using an FDSS 7000EX Functional Drug Screening System (Hamamatsu Photonics, Hamamatsu, Japan) in the Center for Chemical Genomics at the Life Sciences Institute. This instrument allowed the in-line addition of test-peptides and receptor agonists while simultaneously acquiring the luminescence signal from live cells. […] A submaximal forskolin (20 μM) concentration was also included to serve as a normalization reference to account for cell number variations and differences in assay transducer efficiency between cell lines.
With this set up it was possible to evaluate the direct agonist effect of the test-peptides on the MC3R and MC4R cell lines during measurement window 1, while the antagonist profile in the presence of EC90 α-MSH was determined on measurement window 2. […] EC50 or IC50 potency values were determined by non-linear regression by fitting the data to a sigmoid four-parameter variable slope model using the GraphPad Prism version 8.4 software package (San Diego CA).
A general note: Cyclic AMP is a second messenger, typically raised through Gs and lowered through Gi signalling.
With `CCCC[C@H](NC(C)=O)C(=O)N[C@@H](C(=O)N[C@@H](Cc1c[nH]cn1)C(=O)N[C@@H](Cc1ccccc1)C(=O)N[C@@H](CCCNC(=N)N)C(=O)N[C@H](Cc1c[nH]c2ccccc12)C(=O)N[C@@H](CC(=O)O)C(=O)N[C@@H](CCCNC(=N)N)C(=O)N[C@@H](Cc1ccccc1)C(=O)NCC(=O)O)C(C)C` [CTX-1181, Nle-D-Val-His-Phe-Arg-D-Trp-Asp-Arg-Phe-Gly] (Ac-[Nle][dV]HFR[dW]DRFG-OH), the “MC3R selectivity (relative to MC4R)” value is reported as 718.

As for `CCCC[C@H](NC(C)=O)C(=O)N[C@H](CCCC)C(=O)N[C@@H](Cc1c[nH]cn1)C(=O)N[C@@H](Cc1ccccc1)C(=O)N[C@@H](CCCNC(=N)N)C(=O)N[C@H](Cc1c[nH]c2ccccc12)C(=O)N[C@@H](CC(=O)O)C(=O)N[C@@H](CCCNC(=N)N)C(=O)N[C@@H](Cc1ccccc1)C(=O)NCC(=O)O` [CTX-1182, Nle-D-Nle-His-Phe-Arg-D-Trp-Asp-Arg-Phe-Gly] (Ac-[Nle][dNle]HFR[dW]DRFG-OH), the “MC3R selectivity (relative to MC4R)” value was found to be 1406.

With `CCCC[C@H](NC(C)=O)C(=O)N(C)[C@H](C)C(=O)N[C@@H](Cc1c[nH]cn1)C(=O)N[C@@H](Cc1ccccc1)C(=O)N[C@@H](CCCNC(=N)N)C(=O)N[C@H](Cc1c[nH]c2ccccc12)C(=O)N[C@@H](CC(=O)O)C(=O)N[C@@H](CCCNC(=N)N)C(=O)N[C@@H](Cc1ccccc1)C(=O)NCC(=O)O` [CTX-1183, Nle-NMe-D-Ala-His-Phe-Arg-D-Trp-Asp-Arg-Phe-Gly] (Ac-[Nle][dNMeA]HFR[dW]DRFG-OH), the “MC3R selectivity (relative to MC4R)” value was 515.

Turning to `CCCC[C@H](NC(C)=O)C(=O)N1CCC[C@@H]1C(=O)N[C@@H](Cc1c[nH]cn1)C(=O)N[C@@H](Cc1ccccc1)C(=O)N[C@@H](CCCNC(=N)N)C(=O)N[C@H](Cc1c[nH]c2ccccc12)C(=O)N[C@@H](CC(=O)O)C(=O)N[C@@H](CCCNC(=N)N)C(=O)N[C@@H](Cc1ccccc1)C(=O)NCC(=O)O` [CTX-1184, Nle-D-Pro-His-Phe-Arg-D-Trp-Asp-Arg-Phe-Gly] (Ac-[Nle][dP]HFR[dW]DRFG-OH), the “MC3R selectivity (relative to MC4R)” value is listed as 28.

`CCCC[C@H](NC(C)=O)C(=O)NCC(=O)N[C@@H](Cc1c[nH]cn1)C(=O)N[C@@H](Cc1ccccc1)C(=O)N[C@@H](CCCNC(=N)N)C(=O)N[C@H](Cc1c[nH]c2ccccc12)C(=O)N[C@@H](CC(=O)O)C(=O)N[C@@H](CCCNC(=N)N)C(=O)N[C@@H](Cc1ccccc1)C(=O)NCC(=O)O` [CTX-1185, Nle-Gly-His-Phe-Arg-D-Trp-Asp-Arg-Phe-Gly] (Ac-[Nle]GHFR[dW]DRFG-OH): the “MC3R selectivity (relative to MC4R)” value is 2,312.

Take `CCCC[C@H](NC(C)=O)C(=O)N[C@H](C)C(=O)N(C)[C@@H](Cc1c[nH]cn1)C(=O)N[C@@H](Cc1ccccc1)C(=O)N[C@@H](CCCNC(=N)N)C(=O)N[C@H](Cc1c[nH]c2ccccc12)C(=O)N[C@@H](CC(=O)O)C(=O)N[C@@H](CCCNC(=N)N)C(=O)N[C@@H](Cc1ccccc1)C(=O)NCC(=O)O` [CTX-1186, Nle-D-Ala-NMe-His-Phe-Arg-D-Trp-Asp-Arg-Phe-Gly] (Ac-[Nle][dA][NMeH]FR[dW]DRFG-OH): the “MC3R selectivity (relative to MC4R)” value is recorded as 1884.

Turning to `CCCC[C@H](NC(C)=O)C(=O)N[C@H](C)C(=O)N(C)[C@@H](CCCCN)C(=O)N[C@@H](Cc1ccccc1)C(=O)N[C@@H](CCCNC(=N)N)C(=O)N[C@H](Cc1c[nH]c2ccccc12)C(=O)N[C@@H](CC(=O)O)C(=O)N[C@@H](CCCNC(=N)N)C(=O)N[C@@H](Cc1ccccc1)C(=O)NCC(=O)O` [CTX-1189, Nle-D-Ala-NMe-Lys-Phe-Arg-D-Trp-Asp-Arg-Phe-Gly] (Ac-[Nle][dA][NMeK]FR[dW]DRFG-OH), the “MC3R selectivity (relative to MC4R)” value stood at 1.

On to `CC[C@@H](NC(=O)[C@H](CCC(=O)O)NC(=O)[C@@H](NC(=O)[C@H](Cc1ccc(O)cc1)NC(C)=O)C(C)C)C(=O)N[C@@H](Cc1c[nH]cn1)C(=O)N[C@@H](Cc1ccc(I)cc1)C(=O)N[C@@H](CCCNC(=N)N)C(=O)N[C@H](Cc1c[nH]c2ccccc12)C(=O)N[C@@H](CC(=O)O)C(=O)N[C@@H](CCCNC(=N)N)C(=O)N[C@@H](Cc1ccccc1)C(=O)NCC(=O)O` [CTX-1194, Tyr-Val-Glu-D-Abu-His-Phe(4-I)-Arg-D-Trp-Asp-Arg-Phe-Gly] (Ac-YVE[dAbu]H[Phe(4-I)]R[dW]DRFG-OH), for which the “MC3R selectivity (relative to MC4R)” value is given as 49.

Regarding `CC(=O)N[C@@H](Cc1ccc(O)cc1)C(=O)N[C@H](C(=O)N[C@@H](CCC(=O)O)C(=O)NC(C)(C)C(=O)N[C@@H](Cc1c[nH]cn1)C(=O)N[C@@H](Cc1ccc(I)cc1)C(=O)N[C@@H](CCCNC(=N)N)C(=O)N[C@H](Cc1c[nH]c2ccccc12)C(=O)N[C@@H](CC(=O)O)C(=O)N[C@@H](CCCNC(=N)N)C(=O)N[C@@H](Cc1ccccc1)C(=O)NCC(=O)O)C(C)C` [CTX-1195, Tyr-Val-Glu-Aib-His-Phe(4-I)-Arg-D-Trp-Asp-Arg-Phe-Gly] (Ac-YVE[Aib]H[Phe(4-I)]R[dW]DRFG-OH), the “MC3R selectivity (relative to MC4R)” value is 51.

On to `CCCC[C@H](NC(C)=O)C(=O)N[C@H](C)C(=O)N[C@@H](CCCNC(=N)N)C(=O)N[C@@H](Cc1ccc(I)cc1)C(=O)N[C@@H](CCCNC(=N)N)C(=O)N[C@H](Cc1c[nH]c2ccccc12)C(=O)N[C@@H](CC(=O)O)C(=O)N[C@@H](CCCNC(=N)N)C(=O)N[C@@H](Cc1ccccc1)C(=O)NCC(=O)O` [CTX-1197, Nle-D-Ala-Arg-Phe(4-I)-Arg-D-Trp-Asp-Arg-Phe-Gly] (Ac-[Nle][dA]R[Phe(4-I)]R[dW]DRFG-OH), for which the “MC3R selectivity (relative to MC4R)” value turned out to be 250.

Consider `CCCC[C@H](NC(C)=O)C(=O)N[C@H](C)C(=O)N[C@@H](Cc1c[nH]cn1)C(=O)N[C@@H](Cc1ccc(I)cc1)C(=O)N[C@H](CCCNC(=N)N)C(=O)N[C@@H](Cc1c[nH]c2ccccc12)C(=O)N[C@@H](CC(=O)O)C(=O)N[C@@H](CCCNC(=N)N)C(=O)N[C@@H](Cc1ccccc1)C(=O)NCC(=O)O` [CTX-1501, Nle-D-Ala-His-Phe(4-I)-D-Arg-Trp-Asp-Arg-Phe-Gly] (Ac-[Nle][dA]H[Phe(4-I)][dR]WDRFG-OH), for which the “MC3R selectivity (relative to MC4R)” value is on record as 0.01.

Turning to `CCCC[C@H](NC(C)=O)C(=O)N[C@H](C)C(=O)N[C@@H](Cc1c[nH]cn1)C(=O)N[C@@H](Cc1ccc(I)cc1)C(=O)N[C@@H](CCCNC(=N)N)C(=O)N[C@H](Cc1ccccc1)C(=O)N[C@@H](CC(=O)O)C(=O)N[C@@H](CCCNC(=N)N)C(=O)N[C@@H](Cc1ccccc1)C(=O)NCC(=O)O` [CTX-1503, Nle-D-Ala-His-Phe(4-I)-Arg-D-Phe-Asp-Arg-Phe-Gly] (Ac-[Nle][dA]H[Phe(4-I)]R[dF]DRFG-OH), the “MC3R selectivity (relative to MC4R)” value was 214.

For `CCCC[C@H](NC(C)=O)C(=O)N[C@H](C)C(=O)N[C@@H](Cc1c[nH]cn1)C(=O)N[C@@H](Cc1ccccc1)C(=O)N[C@@H](CCCNC(=N)N)C(=O)N[C@](C)(Cc1c[nH]c2ccccc12)C(=O)N[C@@H](CC(=O)O)C(=O)N[C@@H](CCCNC(=N)N)C(=O)N[C@@H](Cc1ccccc1)C(=O)NCC(=O)O` [CTX-1510, Nle-D-Ala-His-Phe-Arg-aMe-D-Trp-Asp-Arg-Phe-Gly] (Ac-[Nle][dA]HFR[d(αMeW)]DRFG-OH), the “MC3R selectivity (relative to MC4R)” value is reported as 23.

Consider `CCCC[C@H](NC(C)=O)C(=O)N[C@H](C)C(=O)N[C@@H](Cc1c[nH]cn1)C(=O)N[C@@H](Cc1ccccc1)C(=O)N[C@@H](CCCCN)C(=O)N[C@H](Cc1c[nH]c2ccccc12)C(=O)N[C@@H](CC(=O)O)C(=O)N[C@@H](CCCNC(=N)N)C(=O)N[C@@H](Cc1ccccc1)C(=O)NCC(=O)O` [CTX-1523, Nle-D-Ala-His-Phe-Lys-D-Trp-Asp-Arg-Phe-Gly] (Ac-[Nle][dA]HFK[dW]DRFG-OH), for which the “MC3R selectivity (relative to MC4R)” value is 5,321.

With `CCCC[C@H](NC(C)=O)C(=O)N[C@H](C)C(=O)N[C@@H](Cc1c[nH]cn1)C(=O)N[C@@H](Cc1ccccc1)C(=O)N[C@@H](CCCNC(=N)N)C(=O)N[C@H](Cc1c[nH]c2ccccc12)C(=O)N[C@H](Cc1ccccc1)C(=O)N[C@@H](CCCNC(=N)N)C(=O)N[C@@H](Cc1ccccc1)C(=O)NCC(=O)O` [CTX-1530, Nle-D-Ala-His-Phe-Arg-D-Trp-D-Phe-Arg-Phe-Gly] (Ac-[Nle][dA]HFR[dW][dF]RFG-OH), the “MC3R selectivity (relative to MC4R)” value worked out at 15.

Turning to `CCCC[C@H](NC(C)=O)C(=O)N[C@H](C)C(=O)N[C@@H](Cc1c[nH]cn1)C(=O)N[C@@H](Cc1ccccc1)C(=O)N[C@@H](CCCNC(=N)N)C(=O)N[C@H](Cc1c[nH]c2ccccc12)C(=O)N[C@@H](CCCC)C(=O)N[C@@H](CCCNC(=N)N)C(=O)N[C@@H](Cc1ccccc1)C(=O)NCC(=O)O` [CTX-1532, Nle-D-Ala-His-Phe-Arg-D-Trp-Nle-Arg-Phe-Gly] (Ac-[Nle][dA]HFR[dW][Nle]RFG-OH), the “MC3R selectivity (relative to MC4R)” value came to 184.
